One data set concerns NCI-H460. Nature of the data set: DTP human tumor cell line one-dose prescreen, NCI-H460. The conditions noted are these: 48 hours, Alamar Blue, test/control, read-out: Percentage growth Lung NCI-H460. Type of data set: cell-based. The protocol:
(§1) DTP Human Tumor Cell Line Screen
(§2) Methodology of the In Vitro Cancer Screen
(§3) The current assay utilizes a 384 well plate format and fluorescent staining technologies resulting in greater screening capacity for testing of synthetic samples.
(§4) The cell lines of the cancer-screening panel are grown in RPMI 1640 medium containing 5% fetal bovine serum and 2 mM L-glutamine. For a typical screening experiment, cells are inoculated into 96 well microtiter plates in 100 μL. After cell inoculation, the microtiter plates are incubated at 37° C., 5% CO2, 95% air and 100% relative humidity for 24 h prior to addition of experimental drugs. The cells are plated a densities of 5000 cells/well (MCF7), 1000 cells/well (NC1—H460), and 7500 cells/well (SF-268) to allow for varying doubling time of the cell lines. Each plate contains all three cell lines, a series of dilutions of standard agents, total kill wells and appropriate controls. Plates are incubated under standard conditions for 24 hours prior to addition of experimental compounds or extracts.
(§5) Addition of Experimental Agents (Pure Compounds)
(§6) Experimental compounds are solubilized in dimethyl sulfoxide (DMSO) at 400-times the desired maximum test concentration (maximum final DMSO concentration of 0.25%) and stored frozen. Compounds are then diluted with complete media with 0.1% gentamicin sulfate (5 μl of test sample in 100% DMSO is added to 565 μl of complete medium). 20 μl of this solution is then dispensed into test wells containing 50 μl of cell suspension to yield a test concentration of 1.00E-04M.
(§7) Two standard drugs, meaning that their activities against the cell lines are well documented, are tested against each cell line: NSC 19893 (5-FU) and NSC 123127 (Adriamycin).
(§8) After compound addition, plates are incubated at standard conditions for 48 hours, 10 μl/well Alamar Blue is added and the plates are incubated for an additional 4 hours. Fluorescence is measured using an excitation wavelength of 530 nm and an emission wavelength of 590 nm.
(§9) Calculation of Percent Test Cell Growth/Control (Untreated) Cell Growth (T/C)
(§10) Percent growth is calculated on a plate-by-plate basis for test wells relative to control wells. Percent Growth is expressed as the ratio of fluorescence of the test well to the average fluorescence of the control wells x 100.

For another data set, the system named is MCF-7. The experiment in a line: DTP human tumor cell line one-dose prescreen, MCF-7. The data set is classed as cell-based. As to conditions: MCF7, 48 hours, Alamar Blue, test/control, read-out: Percentage growth Breast MCF-7. As to the method: as §1, §2, §3, §4, §5, §6, §7, §8, §9, §10
A further data set deals with SF-268. The experiment in a line: DTP human tumor cell line one-dose prescreen, SF-268. The data set is classed as cell-based. The conditions noted are these: 48 hours, Alamar Blue, test/control, read-out: Percentage growth CNS SF-268. As to the method:
as §1, §2, §3, §4, §5, §6, §7, §8, §9, §10

A further data set has as its target T1, COX-2 (Homo sapiens, UniProt P35354).
T1 construct: incubation of human blood with lipopolysaccharide (LPS), which induces COX-2 production in the blood; endogenous in cells; host or cells: fresh human whole blood from volunteers, treated with aspirin and then LPS
T1 sequence (P35354 18-604): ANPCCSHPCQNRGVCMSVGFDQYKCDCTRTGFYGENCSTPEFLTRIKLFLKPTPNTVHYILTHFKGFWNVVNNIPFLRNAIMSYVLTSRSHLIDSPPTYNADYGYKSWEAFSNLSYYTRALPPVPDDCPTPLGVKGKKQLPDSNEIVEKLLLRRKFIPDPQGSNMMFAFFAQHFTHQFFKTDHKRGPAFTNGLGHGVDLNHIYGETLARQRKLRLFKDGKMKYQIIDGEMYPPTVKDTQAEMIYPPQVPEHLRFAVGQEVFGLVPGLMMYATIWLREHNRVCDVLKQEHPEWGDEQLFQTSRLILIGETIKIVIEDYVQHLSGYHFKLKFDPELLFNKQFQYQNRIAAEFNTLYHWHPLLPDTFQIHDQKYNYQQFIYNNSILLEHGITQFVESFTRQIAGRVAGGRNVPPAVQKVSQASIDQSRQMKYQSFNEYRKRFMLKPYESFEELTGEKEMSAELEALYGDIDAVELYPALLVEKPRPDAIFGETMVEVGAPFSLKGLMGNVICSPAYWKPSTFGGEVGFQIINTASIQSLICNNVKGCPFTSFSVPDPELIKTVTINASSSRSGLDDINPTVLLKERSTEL
Nature of the data set: Human whole blood assay, COX-2 inhibition (PGE2 ELISA after LPS). The data set is classed as cell-based. The conditions noted are these: LPS 24 h. The protocol: In Vivo Evaluation of Cyclooxygenase-2 (COX-2) Inhibition Activity
The COX-2 inhibition activities of the compounds illustrated in the examples are determined by the following method.
Human whole blood provides a protein and cell rich milieu appropriate for the study of biochemical efficacy of anti-inflammatory compounds such as selective COX-2 inhibitors. […] This is correlating with the observation that COX-2 inhibitors have no effect on prostaglandin E2 (PGE2) production in normal blood. These inhibitors are active only after incubation of human blood with lipopolysaccharide (LPS), which induces COX-2 production in the blood.
Fresh blood is collected in tubes containing potassium EDTA by vein puncture from make volunteers. The subjects should have no apparent inflammatory conditions and not taken NSAIDs for at least 7 days prior to blood collection. Blood is treated with aspirin in vitro (10 μg/ml, at time zero) to inactivate COX-1, and then with LPS (10 μg/ml) along with test agents or vehicle. The blood is incubated for 24 h at 37° C., after which the tubes are centrifuged, the plasma is separated and stored at −80° C. (J. Pharmacol. Exp. Ther, 271, 1705, 1994; Proc. Natl. Acad. Sci. USA., 96, 7563, 1999). The plasma is assayed for PGE2 using Cayman ELISA kit as per the procedure outlined by the manufacturer (Cayman Chemicals, Ann Arbor, USA).

The next data set concerns TNF-α. Nature of the data set: TNF-α production in LPS-stimulated human whole blood. Type of data set: cell-based. As to conditions: LPS 4 h. As to the method:
Tumor Necrosis Factor Alpha (TNF-α)
This assay determines the effect of test compounds on the production of TNF-α in human whole blood. TNF-α assay is carried out as described by Armin hatzelmann and Christian Schudt (J Pharm Exp Ther 297, 261, 2001). Compounds are tested for their ability to inhibit the activity of TNF-α in human whole blood. The test compounds are pre-incubated for 15 minutes at 37° C. and then stimulated with Lipopolysaccharide (Salmonella abortus equi, 1 μg/ml) for 4 h at 37° C. in 5% CO2. The levels of TNF-α are estimated using Enzyme linked Immunosorbent assay performed in a 96 well format as per the procedure of the manufacturer (Cayman Chemical, Ann Arbor, USA).

In another data set the test system is Male Wistar rats. Nature of the data set: Rat carrageenan paw edema test. The data set is classed as in vivo. The conditions noted are these: 5 mg/kg body weight, oral, paw volume 3 hours after carrageenan, read-out: Rat Paw Edema model % inhibition. As to the method: Rat Carrageenan Paw Edema Test
The carrageenan paw edema test is performed as described by Winter et al (Proc. Soc. Exp. Biol. Med, 111, 544, 1962). Male Wistar rats are selected and the body weights are equivalent within each group. The rats are fasted for eighteen hours with free access to water. The rats are dosed orally with the test compound suspended in vehicle containing 0.5% methylcellulose. The control rats are administered the vehicle alone. After an hour, the rats are injected with 0.1 ml of 1% Carrageenan solution in 0.9% saline into the sub-plantar surface of the right hind paw. Paw volume is measured using water plethysmograph before and after 3 hours of carrageenan injection. The average of foot swelling in drug treated animals is compared with that of control animals. Anti-inflammatory activity is expressed as the percentage inhibition of edema compared with control group [Arzneim-Forsch/Drug Res., 43(I), 1, 44-50,1993; Ottemess and Bliven, Laboratory Models for Testing NSAIDs, In Non-Steroidal Anti-Inflammatory Drugs, (J. Lombardino, ed. 1985)]. In order to evaluate their role on the ulcer formation, the animals are sacrificed and the stomach is taken out and flushed with 1% formalin. The stomach is opened along the greater curvature. The haemorrhagic puncta and sulci are identified microscopically and images are captured. The stomach lesions are calculated.

The subject of a further data set is IL-6. The experiment in a line: IL-6 production in LPS-stimulated human whole blood. As to conditions: LPS 4 h. The data set is classed as cell-based. As to the method:
This assay determines the effect of test compounds on the production of IL-6 from human whole blood. Compounds are tested for their ability to downregulate the production of IL-6 in activated whole blood. The test compounds are pre-incubated for 15 minutes at 37° C. and then stimulated with Lipopolysaccharide (Salmonella abortus equi, 1 μg/ml) for 4 h at 37° C. in 5% CO2. The levels of Interleukin-6 are estimated using Enzyme linked Immunosorbent assay performed in a 96 well format as per the procedure of the manufacturer (Cayman Chemical, Ann Arbor, USA).

Take `CSc1ccc(-n2c(-c3cccnc3)nc(SC)c(C#N)c2=O)cc1` [Example 27, 5-cyano-4-(methylthio)-1-[4-(methylthio)phenyl]-6-oxo-2-pyridin-3-yl-1,6-dihydropyrimidine]: the melting point fell in the range of 212 to 215 °C. Further, the activity at 100 µM in the data set on NCI-H460 was found to be 14%. Also, the activity at 100 µM in the data set on MCF-7 worked out at 23%. Also, in the data set on SF-268, the activity at 100 µM is 51%.

On to `CNc1nc(-c2ccc(SC)cc2)n(-c2ccc(C)c(C)c2)c(=O)c1C#N` [Example 55, 5-cyano-1-(3,4-dimethylphenyl)-4-(methylamino)-2-[4-(methylthio)phenyl]-6-oxo-1,6-dihydropyrimidine], for which the melting point lay within 199 to 205 °C. Further, the inhibition at 1 µM at COX-2 is 8.2%. In the data set with TNF-α, this compound had an inhibition at 1 µM of 54.4%.

Consider `CSc1nc(-c2ccc(S(C)(=O)=O)cc2)n(-c2ccc(C(C)C)cc2)c(=O)c1C#N` [Example 11, 5-cyano-1-(4-isopropylphenyl)-2-[4-(methylsulfonyl)phenyl]-4-(methylthio)-6-oxo-1,6-dihydropyrimidine], for which the melting point was 211 to 212 °C. This compound yielded an inhibition at 0.25 µM against COX-2 of 31.1%. The inhibition in vivo at 5 mg/kg in the data set on Male Wistar rats was determined as 63.8%. The compound also showed an inhibition at 0.25 µM with IL-6 of 70.8%. In the data set with TNF-α, testing at 0.25 µM gave an inhibition of 63.8%.

Compound `CSc1ccc(-n2c(-c3ccc(C)cc3)nc(SC)c(C#N)c2=O)cc1` [Example 20, 5-cyano-2-(4-methylphenyl)-4-(methylthio)-1-[4-(methylthio)phenyl]-6-oxo-1,6-dihydropyrimidine] showed a melting point of 230 to 233 °C. For the same compound, the inhibition at 0.25 µM at COX-2 came to 7.67%. In the data set with TNF-α, this compound returned an inhibition at 1 µM of 61.4%.

`CSc1nc(-c2ccccc2)n(-c2ccc(F)cc2)c(=O)c1C#N` [Example 17, 5-cyano-1-(4-fluorophenyl)-4-(methylthio)-2-phenyl-6-oxo-1,6-dihydropyrimidine] registered a melting point of 204 to 205 °C. The inhibition at 0.25 µM at COX-2 is 16.2%. The inhibition at 0.25 µM in the data set on IL-6 came out at 16.2%. Also, the inhibition at 10 µM with TNF-α turned out to be 47.4%.

On to `CSc1nc(-c2ccc(S(C)(=O)=O)cc2)n(-c2ccc(C)c(C)c2)c(=O)c1C#N` [Example 12, 5-cyano-1-(3,4-dimethylphenyl)-2-[4-(methylsulfonyl)phenyl]-4-(methylthio)-6-oxo-1,6-dihydropyrimidine], for which the melting point was 245 to 247 °C. Testing at 0.25 µM against COX-2 gave an inhibition of 36.5%. The inhibition in vivo at 5 mg/kg in the data set with Male Wistar rats is 41.2%. The same compound had an inhibition at 0.25 µM in the data set with IL-6 of 28.7%. The inhibition at 0.25 µM in the data set on TNF-α was determined as 27.2%.

`CCOC(=O)c1c(SC)nc(-c2ccc(F)cc2)n(-c2ccc(SC)cc2)c1=O` [Example 43, ethyl 2-(4-fluorophenyl)-4-(methylthio)-1-[4-(methylthio)phenyl]-6-oxo-1,6-dihydropyrimidine-5-carboxylate] gave a melting point of 166 to 169 °C. In addition, the activity at 100 µM with NCI-H460 was determined as 79%. The activity at 100 µM in the data set with MCF-7 was found to be 68%. Further, the inhibition at 1 µM against COX-2 is 27.5%. In addition, in the data set with IL-6, the inhibition at 0.25 µM came out at 10.4%. The same compound showed an inhibition at 1 µM in the data set with TNF-α of 36.4%.

On to `CNc1nc(-c2ccc(SC)cc2)n(-c2ccc(C)cc2)c(=O)c1C#N` [Example 54, 5-cyano-4-(methylamino)-1-(4-methylphenyl)-2-[4-(methylthio)phenyl]-6-oxo-1,6-dihydropyrimidine], for which the melting point is 268 to 271 °C. On COX-2, this compound displayed an inhibition at 0.25 µM of 72.1%. In addition, 1 µM produced 15.5% inhibition in the data set with IL-6 (1 μM). The compound also returned an inhibition at 1 µM in the data set with TNF-α of 15.6%.

`CCOC(=O)c1c(SC)nc(-c2ccc(SC)cc2)n(-c2ccc(F)cc2)c1=O` [Example 42, ethyl 1-(4-fluorophenyl)-4-(methylthio)-2-[4-(methylthio)phenyl]-6-oxo-1,6-dihydropyrimidine-5-carboxylate]: the melting point was 151 to 155 °C. On COX-2 (0.1 μM), this compound registered an inhibition at 0.1 µM of 37.6%. The compound further gave an inhibition at 0.1 µM in the data set with IL-6 (0.1 μM) of 59.7%. This compound came in with an inhibition at 0.1 µM in the data set on TNF-α (0.1 μM) of 49.6%.

For the compound `COc1ccc(-n2c(-c3ccc(SC)cc3)nc(SC)c(C#N)c2=O)cc1` [Example 16, 5-cyano-1-(4-methoxyphenyl)-4-(methylthio)-2-[4-(methylthio)phenyl]-6-oxo-1,6-dihydropyrimidine], the melting point was 214 to 216 °C. Further, the activity at 100 µM with NCI-H460 is 95%. Also, in the data set with MCF-7, the activity at 100 µM amounted to 90%. In the data set with TNF-α, this compound yielded an inhibition at 10 µM of 59.8%.

The values are drawn from patent US7365069B2, “Pyrimidone derivatives” (Bexel Pharmaceuticals Inc., priority 2002, dated 2008).
